Assay results reported in patent publication US20220133702A1, “CYSTIC FIBROSIS TRANSMEMBRANE CONDUCTANCE REGULATOR MODULATORS FOR TREATING AUTOSOMAL DOMINANT POLYCYSTIC KIDNEY DISEASE” (The Johns Hopkins University, priority 2020, published 2022).

Experiments:
PC2 in PN cells = assay: Western blot of endogenous PC2; format: cell-based, mouse
Procedure: FIG. 6A and FIG. 6B show PC2 expression is unchanged by VX-809. (FIG. 6A) Western blot showing expression of PC2 in treated or control cells. (FIG. 6B) Columns represent the means±SEM of the PC2 expression. The data were analyzed by non-parametric t-test. The experiment was repeated six (control) or seven times;
PC2 is a 968-amino acid protein with an approximate molecular weight of 100 kDa in its monomeric form To determine whether VX-809 affects PC2 protein expression, western blot experiments were conducted on PN cells to determine the resting levels of endogenous PC2. The results indicated (FIG. 6) that VX-809 has no effect on PC2 expression.

CFTR = assay: Confocal localization of CFTR with ER, Golgi and PM markers; format: cell-based; settings: treated vs control cells, Pearson's correlation with markers
Source text: FIG. 18A and FIG. 18B show images of confocal microscopy localization studies of CFTR and localization markers in control and treated cells (FIG. 18A) and graphs showing Pearson's correlation coefficient for CFTR and localization markers in control and VX-809 treated cells (FIG. 18B).
(§1) The localization of PC2 and CFTR in control cells was compared to the localization of PC2 and CFTR localization in VX-809 treated cells.

PC2 = assay: Confocal localization of PC2 with ER, Golgi and PM markers; format: cell-based; settings: treated vs control cells, Pearson's correlation with markers
Source text: FIG. 17A and FIG. 17B show images of confocal microscopy localization studies of PC2 and localization markers in control and treated cells (FIG. 17A) and graphs showing Pearson's correlation coefficient for PC2 and localization markers in control and VX-809 treated cells (FIG. 17B).
as §1

[1] = test system: PC2 in Pkd1^fl/fl; Pax8^rtTA; TetO-cre mice; assay: Immunoblot of PC2 protein in kidney tissue, PC1-null model; format: in vivo, mouse; settings: doxycycline plus VX-809
Procedure: The levels of PC2 protein were analyzed in two mouse models of ADPKD: Pkd1^fl/fl; Pax8^rtTA; TetO-cre, which is PC1 null, and the Pkd1^R3277C/R3277C (pkd1^RC/RC) which has a missense mutation in PC1. Pkd1^RC/RC mice develop a consistent, slowly progressing polycystic kidney disease. Pkd1^RC/RC mice were treated daily with VX-809, beginning at one month, and euthanized at 6 months.
Mice were treated without doxycycline (ND), with doxycycline plus DMSO (D), or with doxycycline plus VX809 (D+VX809), as indicated. Three mice were analyzed for each treatment.
In the Pkd1^fl/fl mice, doxycycline-induced cyst formation increases PC2 protein.

NHE3 in PN cells = assay: NHE3 expression; format: cell-based, mouse; settings: treated PN cells vs PN cells
Procedure: FIG. 14A and FIG. 14B show NHE3 expression in PN cells treated with VX-809.
The expression and activity of […] were evaluated. Specifically, NHE3 expression was evaluated in PN cells that were treated with VX-809. […] was also studied in PN, PH, and PN cells treated with VX-809. […] Next, NHE3 activity was evaluated in PN/PH cells or PN cells treated with VX-809. NHE3 activity was increased in PN cells treated with VX-809, as compared to PN cells (FIG. 16A). NHE3 activity was higher in control PH cells than in PN cells (FIG. 16B). […] NHE3 activity was increased in both VX-809 treated PN cells and control PH cells, as compared to control PN cells (FIG. 16C).

[2] = test system: intracellular Ca^2+ in PN cells; assay: Fura-2 Ca2+ imaging assay; format: cell-based, mouse; settings: 10 μM, 16 h
Procedure: FIG. 5A, FIG. 5B, FIG. 5C, FIG. 5D, FIG. 5E, and FIG. 5F show intracellular Ca^2+ (F340/F380) levels obtained by ratiometric Fura-2 AM analysis of PN cells treated with VX-809 (10 μM) for 16 h. (FIG. 5A) Representative traces of intracellular Ca^2+ release in response to ATP (100 μM) in PN cells and cells treated with VX-809 (10 μM). (FIG. 5B, FIG. 5C) Graphs summarizing resting calcium levels (FIG. 5B) and the average amplitude of Ca^2+ release (FIG. 5C) in response to ATP. (FIG. 5D) Representative traces of ER Ca^2+ release in response to thapsigargin (4 μM) in PN cells treated with VX-809. (FIG. 5E, FIG. 5F) Resting calcium levels (FIG. 5E) and the average amplitude of Ca^2+ release (FIG. 5F) in response to thapsigargin. Amplitude was measured as the […] of the signal base to peak Δf/f. Significance between the two groups was analyzed using Student's t-test, n=4-5). *P<0.05, ***P<0.001.
Ca^2+-dependent signal transduction is associated with cyst formation. […] To address the effect of VX-809 on this Ca^2+ release, the cells were treated with thapsigargin, a specific inhibitor of the ER Ca^2+-ATPase which, when applied, allows Ca^2+ to leak out of the ER through independent Ca^2+-permeable pathways. A small effect of VX-809 on resting Ca^2+ was observed.
Fura-2 Ca^2+ imaging assay. On Day 5 of cell culture, the cells were loaded with the cell-permeant acetoxymethyl (AM) ester of the calcium indicator fura-2 (fura-2/AM) at 37° C. for 90 min. Measurements were made on a Zeiss inverted microscope equipped with a Sutter Lambda 10-2 controller and filter wheel assembly. For ATP stimulation experiments, the cells were exposed to 100 μM ATP diluted in the imaging buffer. A Zeiss FluorArc mercury lamp was used to excite the cells at 340 and 380 nm, and the emission response was measured at 510 nm Cell fluorescence was measured in response to excitation for 1000 ms at 340 nm and 200 ms at 380 nm once every 4 s. Image acquisition, image analysis, and filter wheel control were performed with IPLab software.

Q: Which PC2 expression (PC2 in PN cells) does the source give for `Cc1ccc(NC(=O)C2(c3ccc4c(c3)OC(F)(F)O4)CC2)nc1-c1cccc(C(=O)O)c1` [VX-809, lumacaftor] here?
A: Its PC2 expression is “no effect”.

Q: And the CFTR localization (CFTR)?
A: Its CFTR localization is “statistically significant move of CFTR from the ER to Basolateral and Apical Membrane”.

Q: And the PC2 localization (PC2)?
A: The PC2 localization was “statistically significant move of PC2 from the ER to Golgi”.

Q: And the “PC2 protein expression (normalized to vinculin)” value [1]?
A: The value was “restores PC2 expression to near-normal values”.

Q: What about the NHE3 expression (NHE3 in PN cells) of the same compound?
A: The NHE3 expression was “significantly increased”.

Q: And the “intracellular Ca^2+ movement in response to ATP” value ([2]; ATP 100 μM)?
A: Its value is “no effect”.

Q: And the “resting Ca^2+” value ([2]; ATP experiment)?
A: The value was “small reduction”.

Q: And the “thapsigargin-induced release of Ca^2+ from the ER” value ([2]; thapsigargin 4 μM)?
A: The value was “dramatically reduced”.

Q: What about the “resting Ca^2+” value ([2]; thapsigargin experiment) of the same compound?
A: The value was “small effect”.
